Counter-ions that a name gives are not always drawn. Like-named read-outs stand apart in the source and are kept apart here. Values belong to the compound of their own block, whether it stands above or below them.
Legend:
[1] = Pharmacokinetics (PK) test in rats; format: in vivo; conditions: for AUC(0-inf) / AUC(0-t) / half-life / Vd / Cmax / Tmax / bioavailability: rat, plasma; for Vd: intravenous, read-out: Vdss; for Cmax / Tmax / bioavailability: oral
[2] = target: JAK2 protein kinase (Homo sapiens, UniProt O60674); assay: biochemical; conditions: 12 uM ATP, 60 min;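 further: recombinant human JAK2 with ULight-labelled JAK-1(Tyr1023) peptide substrate, phosphorylation detected by TR-FRET using Eu-labelled anti-phosphotyrosine antibody, 1% DMSO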
Source text: (§1) Recombinant humanized JAK1, JAK2 and JAK3 protease were all purchased from Life technology. LANCE Ultra ULight™-JAK-1(Tyr1023) peptide and LANCE Eu-W1024 Anti-phosphotyrosine (PT66) were both purchased from PerkinElmer. Envision (PerkinElmer) was used to read a plate.
(§2) The reading was converted into a suppression ratio as follow equation: (%)=(Min−Ratio)/(Max−Min)*100%.

[3] = target: T1, JAK3 (Homo sapiens, UniProt P52333); assay: In vitro activity test of JAK3 kinase (LANCE Ultra TR-FRET); format: biochemical;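 further: recombinant human JAK3 phosphorylating ULight-JAK-1(Tyr1023) peptide at 4 µM ATP, with 1% DMSO, detected by Eu-anti-phosphotyrosine TR-FRET on Envision and converted to percent inhibition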
T1 construct: purchased Life technology
T1 sequence (P52333 1-1124): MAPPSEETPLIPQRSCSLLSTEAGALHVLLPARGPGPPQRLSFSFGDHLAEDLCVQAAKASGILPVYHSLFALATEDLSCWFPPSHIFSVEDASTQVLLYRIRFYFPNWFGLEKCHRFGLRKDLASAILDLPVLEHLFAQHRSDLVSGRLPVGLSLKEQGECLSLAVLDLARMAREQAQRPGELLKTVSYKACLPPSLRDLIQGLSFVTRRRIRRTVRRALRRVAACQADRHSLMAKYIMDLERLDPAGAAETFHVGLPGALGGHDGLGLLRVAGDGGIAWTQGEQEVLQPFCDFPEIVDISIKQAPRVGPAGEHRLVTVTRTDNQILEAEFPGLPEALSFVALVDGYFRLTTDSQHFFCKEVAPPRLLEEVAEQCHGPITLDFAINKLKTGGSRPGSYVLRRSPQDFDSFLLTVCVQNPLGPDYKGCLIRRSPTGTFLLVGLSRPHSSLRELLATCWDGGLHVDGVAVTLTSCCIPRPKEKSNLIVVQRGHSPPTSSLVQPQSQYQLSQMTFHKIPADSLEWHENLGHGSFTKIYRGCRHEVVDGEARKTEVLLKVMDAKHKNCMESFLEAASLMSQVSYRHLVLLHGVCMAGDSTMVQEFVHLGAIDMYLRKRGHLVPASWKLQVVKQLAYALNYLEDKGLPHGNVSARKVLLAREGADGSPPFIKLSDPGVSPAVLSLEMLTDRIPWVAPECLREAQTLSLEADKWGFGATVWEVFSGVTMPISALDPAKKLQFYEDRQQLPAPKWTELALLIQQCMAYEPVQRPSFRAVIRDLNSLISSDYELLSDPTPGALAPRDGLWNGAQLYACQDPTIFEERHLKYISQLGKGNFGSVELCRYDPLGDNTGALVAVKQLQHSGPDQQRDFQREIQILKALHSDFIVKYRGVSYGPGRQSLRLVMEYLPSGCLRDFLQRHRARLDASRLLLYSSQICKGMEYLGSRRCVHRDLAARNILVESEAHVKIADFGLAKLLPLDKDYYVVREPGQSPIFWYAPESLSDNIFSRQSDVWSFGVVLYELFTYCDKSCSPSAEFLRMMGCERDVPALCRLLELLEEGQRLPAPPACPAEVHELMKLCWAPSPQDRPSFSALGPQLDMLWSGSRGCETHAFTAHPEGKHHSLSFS
Protocol: as §1
0.05 nM protein kinase, 50 nM LANCE Ultra ULight™-JAK-1(Tyr1023) peptide, 4 uM ATP, 50 mM HEPES (pH7.5), 10 mM MgCl2, 1 mM EGTA, 2 mM DTT, and 0.01% BRIJ-35.
as §2

[4] = Pharmacokinetics (PK) test in mice; format: in vivo, male DBA/1 mice; conditions: for AUC(0-inf) / AUC(0-t) / half-life / Vd / Cmax / Tmax / bioavailability: male, DBA/1, mouse, plasma; for half-life: caudal vein injection and gavage; for Vd: read-out: Vdss; for Cmax / Tmax / bioavailability: oral
[5] = system: arthritis model induced by collagen; conditions: oral, two consecutive weeks
[6] = target: JAK1 protein kinase (Homo sapiens, UniProt P23458); assay: biochemical; conditions: 38 uM ATP, 90 min
Protocol: In Vitro Activity Test of Jak1, Jak 2 and Jak 3 Kinase
Recombinant humanized JAK1, JAK2 and JAK3 […] were all purchased from Life technology. LANCE Ultra ULight™-JAK-1(Tyr1023) peptide and LANCE Eu-W1024 Anti-phosphotyrosine (PT66) were both purchased from PerkinElmer. Envision (PerkinElmer) was used to read a plate.
Three dilution of a test compound was prepared, and 11 final concentrations were obtained: 10 uM to 0.17 nM. Each concentration had two repeat wells. The content of DMSO in a detection reaction was 1%.
2 nM JAK1 protein kinase, 50 nM LANCE Ultra ULight™-JAK-1(Tyr1023) peptide, 38 uM ATP, 50 mM HEPES (pH7.5), 10 mM MgCl2, 1 mM EGTA, 2 mM DTT, and 0.01% BRIJ-35. Detection plate was White Proxiplate 384-Plus plate (PerkinElmer), the reaction was conducted for 90 min at room temperature, and reaction system was 10 ul.
10 ul detection reagent was added into the reaction plate, wherein the final concentration of LANCE Eu-W1024 Anti-phosphotyrosine (PT66) was 2 nM, the final concentration of EDTA was 10 mM, incubation was conducted for 60 min at room temperature, and the plate was read by the Envision.
The reading was converted into a suppression ratio as follow equation: (%)=([…])/(Max−Min)*100%. IC50 data was detected by 4 parametric curve fitting (Model 205 in XLFIT5, iDBS), see Table 1.

[7] = system: arthritis model induced by adjuvant; assay: Pharmacodynamic test of an arthritis model induced by adjuvant on rats; format: in vivo, female Lewis rat; conditions: oral; for AUC (%): two consecutive weeks; for arthritis inhibitory activity and dose-effect relationship: 1, 3 and 10 mpk

Sequence of JAK2 protein kinase (O60674 whole entry): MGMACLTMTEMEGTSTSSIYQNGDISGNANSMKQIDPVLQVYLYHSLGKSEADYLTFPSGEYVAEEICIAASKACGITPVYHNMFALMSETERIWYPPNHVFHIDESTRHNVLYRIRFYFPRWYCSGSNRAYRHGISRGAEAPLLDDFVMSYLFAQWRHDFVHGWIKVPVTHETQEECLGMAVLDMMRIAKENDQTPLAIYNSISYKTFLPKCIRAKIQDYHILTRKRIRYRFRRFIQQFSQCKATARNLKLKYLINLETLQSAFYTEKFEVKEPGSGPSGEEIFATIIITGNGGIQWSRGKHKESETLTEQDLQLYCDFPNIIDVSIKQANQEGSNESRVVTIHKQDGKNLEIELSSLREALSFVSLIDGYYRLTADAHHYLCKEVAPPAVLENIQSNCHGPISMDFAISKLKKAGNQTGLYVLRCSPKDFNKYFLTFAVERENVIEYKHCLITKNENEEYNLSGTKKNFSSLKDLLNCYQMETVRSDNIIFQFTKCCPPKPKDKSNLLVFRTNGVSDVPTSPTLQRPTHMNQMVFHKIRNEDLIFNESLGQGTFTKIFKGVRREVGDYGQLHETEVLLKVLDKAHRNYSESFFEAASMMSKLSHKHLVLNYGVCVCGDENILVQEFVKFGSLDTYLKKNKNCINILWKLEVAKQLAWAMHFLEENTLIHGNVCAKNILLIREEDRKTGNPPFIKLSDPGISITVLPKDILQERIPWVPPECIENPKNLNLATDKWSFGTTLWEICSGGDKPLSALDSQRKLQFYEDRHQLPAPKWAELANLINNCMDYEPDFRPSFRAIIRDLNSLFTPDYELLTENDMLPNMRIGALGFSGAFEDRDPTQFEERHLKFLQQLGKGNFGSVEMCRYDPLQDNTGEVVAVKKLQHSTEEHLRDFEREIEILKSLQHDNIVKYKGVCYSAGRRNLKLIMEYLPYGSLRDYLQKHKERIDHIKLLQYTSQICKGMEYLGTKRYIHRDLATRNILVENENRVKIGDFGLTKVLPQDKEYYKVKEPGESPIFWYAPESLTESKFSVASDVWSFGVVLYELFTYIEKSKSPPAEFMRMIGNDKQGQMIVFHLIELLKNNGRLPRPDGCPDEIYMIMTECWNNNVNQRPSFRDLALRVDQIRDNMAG
Sequence of JAK1 protein kinase (P23458 whole entry): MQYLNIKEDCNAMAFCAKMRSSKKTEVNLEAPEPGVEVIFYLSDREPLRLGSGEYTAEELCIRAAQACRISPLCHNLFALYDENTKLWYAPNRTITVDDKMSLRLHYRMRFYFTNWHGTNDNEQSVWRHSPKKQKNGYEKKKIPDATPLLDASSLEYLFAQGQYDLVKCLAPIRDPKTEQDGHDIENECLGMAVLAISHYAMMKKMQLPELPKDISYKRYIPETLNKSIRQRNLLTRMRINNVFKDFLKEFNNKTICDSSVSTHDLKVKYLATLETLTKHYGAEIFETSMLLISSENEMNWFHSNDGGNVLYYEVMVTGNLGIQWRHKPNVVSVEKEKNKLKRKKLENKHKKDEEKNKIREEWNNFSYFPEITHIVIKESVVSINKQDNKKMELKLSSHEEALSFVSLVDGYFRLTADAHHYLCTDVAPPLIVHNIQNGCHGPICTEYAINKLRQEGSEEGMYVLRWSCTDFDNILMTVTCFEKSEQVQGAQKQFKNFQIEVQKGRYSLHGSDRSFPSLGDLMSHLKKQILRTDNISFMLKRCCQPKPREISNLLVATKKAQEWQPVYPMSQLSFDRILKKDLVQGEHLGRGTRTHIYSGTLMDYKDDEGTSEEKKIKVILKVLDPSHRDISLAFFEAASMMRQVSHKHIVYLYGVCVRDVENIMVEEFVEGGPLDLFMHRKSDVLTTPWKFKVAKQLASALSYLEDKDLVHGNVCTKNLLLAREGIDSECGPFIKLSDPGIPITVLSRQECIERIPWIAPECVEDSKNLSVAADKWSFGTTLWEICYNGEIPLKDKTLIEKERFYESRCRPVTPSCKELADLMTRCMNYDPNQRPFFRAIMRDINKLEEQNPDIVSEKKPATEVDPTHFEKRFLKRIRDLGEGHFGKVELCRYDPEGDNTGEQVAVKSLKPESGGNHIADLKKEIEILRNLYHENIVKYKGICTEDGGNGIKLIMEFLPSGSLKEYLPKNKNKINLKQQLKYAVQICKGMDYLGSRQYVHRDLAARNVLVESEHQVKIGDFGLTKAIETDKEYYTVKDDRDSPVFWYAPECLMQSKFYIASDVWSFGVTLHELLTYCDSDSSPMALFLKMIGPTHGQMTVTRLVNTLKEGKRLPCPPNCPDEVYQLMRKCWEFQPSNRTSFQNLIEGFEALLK

Structure (SMILES): CN(c1ncnc2[nH]ccc12)N1CCC[C@@H](C(=O)NCC(F)(F)F)C1 (single isomer, unassigned) [WX05, (R or S)-1-[methyl(7H pyrrolo[2,3-d]pyrimidin-4-yl)amino]-N-(2,2,2-trifluoroethyl)piperidyl-3-formamide]
- C1 [1]: 13.1 mL/min/kg
- oral bioavailability and exposed quantity [1]: excellent good oral bioavailability and higher exposed quantity
- AUC(0-inf) [1]: 11.5 µM·h
- AUC(0-t) [1]: 11.2 µM·h
- half-life [1]: 91.8 min
- Vd [1]: 1.49 L/kg
- Cmax [1]: 3690 nM
- Tmax [1]: 60 min
- bioavailability [1]: 64.4%
- IC50 [2]: 10 to 100 nM
- IC50 [3]: < 10 nM
- C1 [4]: 57.2 mL/min/kg
- oral bioavailability and exposed quantity [4]: excellent good oral bioavailability and higher exposed quantity
- AUC(0-inf) [4]: 0.667 µM·h
- AUC(0-t) [4]: 0.664 µM·h
- half-life ([4]; intravenous): 30.9 min
- Vd ([4]; intravenous): 0.959 L/kg
- Cmax [4]: 1230 nM
- Tmax [4]: 15 min
- bioavailability [4]: 27%
- AUC (%) ([5]; 15 mg/kg): 31%
- IC50 [6]: < 10 nM

Structure (SMILES): CN(c1ncnc2[nH]ccc12)N1CCCC(C(=O)NCC(F)(F)F)C1 (single isomer, unassigned) [WX06, (S or R)-1-[methyl(7H pyrrolo[2,3-d]pyrimidin-4-yl)amino]-N-(2,2,2-trifluoroethyl)piperidyl-3-formamide]
- IC50 [2]: > 1000 nM
- IC50 [3]: > 1000 nM
- AUC (%) ([5]; 15 mg/kg): 30.3%
- IC50 [6]: 100 to 1000 nM

Structure (SMILES): CN(c1ncnc2[nH]ccc12)N1CCC[C@@H](C(=O)NCC#N)C1 (single isomer, unassigned) [WX08, (R or S)—N-(cyanomethyl-1-[methyl(7H-pyrrolo[2,3-d]pyrimidin-4-yl)amino]piperidyl)-3-formamide]
- C1 [1]: 27.1 mL/min/kg
- oral bioavailability and exposed quantity [1]: excellent good oral bioavailability and higher exposed quantity
- AUC(0-inf) [1]: 6.5 µM·h
- AUC(0-t) [1]: 6.36 µM·h
- half-life [1]: 56.9 min
- Vd [1]: 1.51 L/kg
- Cmax [1]: 2460 nM
- Tmax [1]: 30 min
- bioavailability [1]: 61%
- AUC (%) ([7]; 1 mg/kg): 13.6%
- AUC (%) ([7]; 3 mg/kg): 33.4%
- AUC (%) ([7]; 10 mg/kg): 49.2%
- arthritis inhibitory activity and dose-effect relationship [7]: good dose-effect relationship and generated arthritis inhibitory activity that was more effective than Filgotinib
- IC50 [2]: < 10 nM
- IC50 [3]: < 10 nM
- C1 [4]: 26.7 mL/min/kg
- oral bioavailability and exposed quantity [4]: excellent good oral bioavailability and higher exposed quantity
- AUC(0-inf) [4]: 3.03 µM·h
- AUC(0-t) [4]: 3 µM·h
- Vd ([4]; intravenous): 0.619 L/kg
- Cmax [4]: 2440 nM
- Tmax [4]: 15 min
- bioavailability [4]: 50.7%
- half-life ([4]; po): 37.4 min
- IC50 [6]: < 10 nM

Structure (SMILES): O=C(Nc1nc2cccc(-c3ccc(CN4CCS(=O)(=O)CC4)cc3)n2n1)C1CC1 [Filgotinib, reference compound]
- AUC (%) ([7]; 3 mg/kg): 7.9%
- AUC (%) ([5]; 15 mg/kg): 39.9%

Structure (SMILES): C[C@@H]1CCN(C(=O)CC#N)C[C@@H]1N(C)c1ncnc2[nH]ccc12 [Tofacitinib, reference compound]
- AUC (%) ([7]; 1 mg/kg): 19.8%
- AUC (%) ([7]; 3 mg/kg): 41.6%
- AUC (%) ([7]; 10 mg/kg): 49.2%
- AUC (%) ([5]; 15 mg/kg): 34%

Structure (SMILES): CN(c1ncnc2[nH]ccc12)N1CCCC(C(=O)NCC(F)(F)F)C1 (stereo not shown) [WX04]
- IC50 [2]: 10 to 100 nM
- IC50 [3]: 10 to 100 nM
- AUC (%) ([5]; 15 mg/kg): 29%
- AUC (%) ([5]; 30 mg/kg): 27%
- IC50 [6]: < 10 nM

Structure (SMILES): CN(c1ncnc2[nH]ccc12)N1CCCC(C(=O)NCC#N)C1 (stereo not shown) [WX07, N-(cyanomethyl)-1-[methyl(7H-pyrrolo[2,3-d]pyrimidin-4-yl)amino]piperidyl-3-formamide]
- C1 [1]: 31.8 mL/min/kg
- oral bioavailability and exposed quantity [1]: excellent good oral bioavailability and higher exposed quantity
- AUC(0-inf) [1]: 5.75 µM·h
- AUC(0-t) [1]: 5.68 µM·h
- half-life [1]: 70.8 min
- Vd [1]: 1.76 L/kg
- Cmax [1]: 3250 nM
- Tmax [1]: 20 min
- bioavailability [1]: 68.6%
- AUC (%) ([7]; 1 mg/kg): 1.5%
- AUC (%) ([7]; 3 mg/kg): 20.4%
- AUC (%) ([7]; 10 mg/kg): 44.7%
- arthritis inhibitory activity and dose-effect relationship [7]: good dose-effect relationship and arthritis inhibitory activity equivalent to Tofacitinib
- IC50 [2]: 10 to 100 nM
- IC50 [3]: < 10 nM
- C1 [4]: 21.3 mL/min/kg
- oral bioavailability and exposed quantity [4]: excellent good oral bioavailability and higher exposed quantity
- AUC(0-inf) [4]: 2.48 µM·h
- AUC(0-t) [4]: 2.33 µM·h
- Vd ([4]; intravenous): 0.846 L/kg
- Cmax [4]: 2290 nM
- Tmax [4]: 30 min
- bioavailability [4]: 32.9%
- half-life ([4]; po): 81 min
- AUC (%) ([5]; 15 mg/kg): 52.2%
- IC50 [6]: < 10 nM

- IC50 [2]: > 1000 nM
- IC50 [3]: > 1000 nM
- IC50 [6]: > 1000 nM
Structure (SMILES): CC(C)(C)OC(=O)N1CC2CN(Nc3ncnc4[nH]ccc34)CC2C1 (stereo not shown) [WX48, 5-[[7H-pyrrole[2,3-d]pyrimidine-4-]amino]-hexahydropyrrolo[3,4-c]pyrrole-2(1H)-tert-butyl formate]

- IC50 [2]: 100 to 1000 nM
- IC50 [3]: 100 to 1000 nM
- IC50 [6]: 10 to 100 nM
Structure (SMILES): CN(c1ncnc2[nH]ccc12)N1CCCC(C(=O)Nc2cccc(C(F)(F)F)c2)C1 (stereo not shown) [WX53, 1-[methyl(7H-pyrrolo[2,3-d]pyrimidin-4-yl)amino]-N-[3-(trifluoromethyl)phenyl]piperidyl-3-formamide]

- IC50 [2]: 100 to 1000 nM
- IC50 [3]: 100 to 1000 nM
- IC50 [6]: 100 to 1000 nM
Structure (SMILES): CN(c1ncnc2[nH]ccc12)N1CCCC(C(=O)N2CC(O)C2)C1 (stereo not shown) [WX54]

- IC50 [2]: > 1000 nM
- IC50 [3]: > 1000 nM
- IC50 [6]: 100 to 1000 nM
Structure (SMILES): N#CCC(=O)N1CC2CCN(Nc3ncnc4[nH]ccc34)CC2C1 (stereo not shown) [WX55, 3-[5-(7H-pyrrolo[2,3-d]pyrimidin-4-ylamino)-hexahydro-1H-pyrrolo[3,4-c]pyridin-2-yl]3-oxopropanenitrile]

- IC50 [2]: > 1000 nM
- IC50 [3]: 10 to 100 nM
- IC50 [6]: < 10 nM
Structure (SMILES): CN(c1ncnc2[nH]ccc12)N1CCCC(C(=O)NC2CC(F)(F)C2)C1 (stereo not shown) [WX56]

- IC50 [2]: 10 to 100 nM
- IC50 [3]: 10 to 100 nM
- IC50 [6]: 10 to 100 nM
Structure (SMILES): CN(c1ncnc2[nH]ccc12)N1CCCC(c2ncc(C(F)(F)F)[nH]2)C1 (stereo not shown) [WX57, N-methyl-N-[3-[5-trifluoromethyl-1H-imidazol-2-yl]-1-piperidinyl]-7H-pyrrolo[2,3-d]pyrimidine-4-amine]

- IC50 [2]: 100 to 1000 nM
- IC50 [3]: 100 to 1000 nM
- IC50 [6]: 10 to 100 nM
Structure (SMILES): O=C(NCC(F)(F)F)C1CCCN(N(c2ncnc3[nH]ccc23)C2CC2)C1 (stereo not shown) [WX58, 1-[cyclopropyl(7H-pyrrolo[2,3-d]pyrimidin-4-yl)amino]-N-(2,2,2-trifluoroethyl)piperidyl-3-formamide]

- IC50 [2]: > 1000 nM
- IC50 [3]: > 1000 nM
- IC50 [6]: 100 to 1000 nM
Structure (SMILES): O=C(NCC(F)(F)F)C1CCC2(CC1)CCN(Nc1ncnc3[nH]ccc13)CC2 [WX59]
